Literature values in patent US20150267258A1, “BIOMARKERS FOR DETERMINING EFFECTIVE RESPONSE OF TREATMENTS OF HEPATOCELLULAR CARCINOMA (HCC) PATIENTS” (BAYER PHARMA AKTIENGESELLSCHAFT, priority 2012, published 2015).

Tests used:
[1] = system: metastatic colorectal cancer; conditions: patients with metastatic colorectal cancer

SMILES	Overall survival [1]	Effectiveness in lung cancer (lung cancer)
CNC(=O)c1cc(Oc2ccc(NC(=O)Nc3ccc(Cl)c(C(F)(F)F)c3)c(F)c2)ccn1 [Regorafenib, 4-[4-({[4-Chloro-3-(trifluoromethyl)phenyl]carbamoyl}amino)-3-fluorophenoxy]-N-methylpyridine-2-carboxamide]	increase the overall survival	–
CNC(=O)c1cc(Oc2ccc(NC(=O)Nc3ccc(Cl)c(C(F)(F)F)c3)cc2)ccn1 [Sorafenib, 4-[4-[[4-chloro-3-(trifluoromethyl)phenyl]carbamoylamino]phenoxy]-N-methyl-pyridine-2-carboxamide]	–	effective in lung cancer
